In data set [1] the test system is HCT116 tumor-bearing mice. The data set can be described thus: In vivo antitumor activity. More on the design: species or system Balb-c/nude mice. The settings on record: 10 mg/kg i.v. on days 0 and 7, compared to control mice. The procedure:
(§1) The HCT116 cells were transplanted subcutaneously into the rear of 4-week female Balb-c/nude mice (1×10^6 cells/0.1 mL) At 4-6 weeks post-transplantation, HCT116 tumor-bearing mice (tumor volume: approximately 500 mm^3) were used in the antitumor activity study. Mice were treated i.v. via the tail vein on days 0 and 7. Animals were then injected with a drug PBS solution (free Dox, Dox-loaded polymer-incorporated nanoparticles, and Dox-loaded oligomer-contained nanoparticle complexes at a dose of 10 mg/kg). Tumor size was measured three weekly using a Vernier's caliper. To evaluate animal wellness and clinical status, the body weight of mice was recorded.

The nature of data set [2]: Body weight of mice in antitumor study. In kind it is in vivo, Balb-c/nude mice. As to conditions: 10 mg/kg i.v. on days 0 and 7, during the administration period. The procedure:
as §1

Regarding `COc1cccc2c1C(=O)c1c(O)c3c(c(O)c1C2=O)C[C@@](O)(C(=O)CO)C[C@@H]3O[C@H]1C[C@H](N)[C@H](O)[C@H](C)O1` [free Dox, doxorubicin], the Tumor growth result in data set [1] is listed as “inhibited tumor growth”. For the same compound, the “Body weight of mice” value in data set [2] is given as “obvious weight loss”.

(Values after patent publication US9326938B2 (National Yang Ming Unviversity, priority 2013, dated 2016).)
